According to patent US12692232B2, “Indole carboxamide compound, preparation therefor and use thereof” (NANJING RUISHUNING MEDICAL TECHNOLOGY CO., LTD., priority 2021, dated 2026):

Columns and labels:
TRPC6 channel = molecular target: T1, TRPC6 channel (Homo sapiens, UniProt Q9Y210); test: In vitro binding to TRPC6 protein by microscale thermophoresis (MST); parameters: fused on or other part: NT-647-NHS fluorescent dye label (chemical labelling for MST)
T1 sequence (Q9Y210 1-931): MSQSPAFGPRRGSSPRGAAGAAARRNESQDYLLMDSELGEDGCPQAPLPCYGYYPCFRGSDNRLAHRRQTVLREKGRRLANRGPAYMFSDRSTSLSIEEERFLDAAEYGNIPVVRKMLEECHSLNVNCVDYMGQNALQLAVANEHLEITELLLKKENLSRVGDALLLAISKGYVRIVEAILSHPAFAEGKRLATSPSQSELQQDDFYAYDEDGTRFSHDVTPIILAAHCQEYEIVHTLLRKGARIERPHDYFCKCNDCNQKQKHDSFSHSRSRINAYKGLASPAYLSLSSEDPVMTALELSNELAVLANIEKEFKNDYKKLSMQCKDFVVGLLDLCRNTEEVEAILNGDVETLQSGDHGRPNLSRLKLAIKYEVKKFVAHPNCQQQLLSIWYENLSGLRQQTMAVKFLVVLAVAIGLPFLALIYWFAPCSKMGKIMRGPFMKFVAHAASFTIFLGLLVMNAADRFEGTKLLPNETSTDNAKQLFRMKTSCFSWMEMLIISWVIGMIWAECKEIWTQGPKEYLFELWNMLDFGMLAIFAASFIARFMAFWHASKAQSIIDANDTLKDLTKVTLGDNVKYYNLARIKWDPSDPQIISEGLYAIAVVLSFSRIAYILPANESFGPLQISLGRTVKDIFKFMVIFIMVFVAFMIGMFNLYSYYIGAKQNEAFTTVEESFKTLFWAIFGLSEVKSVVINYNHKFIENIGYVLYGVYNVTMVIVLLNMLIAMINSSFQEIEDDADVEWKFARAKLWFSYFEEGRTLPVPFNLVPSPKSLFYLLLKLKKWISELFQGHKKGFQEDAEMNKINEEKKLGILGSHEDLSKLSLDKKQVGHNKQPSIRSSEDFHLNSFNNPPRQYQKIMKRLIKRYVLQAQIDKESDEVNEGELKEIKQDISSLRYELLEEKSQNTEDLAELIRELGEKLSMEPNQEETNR
Procedure: The binding ability of the compounds of the present invention (as exemplified by the compounds obtained in Examples 1 to 3) to the TRPC6 protein was determined using the microscale thermophoresis (MST) method. The method was as follows:
(§1) Preparation and labelling of protein solution: TRPC6 protein dry powder (Alomone Labs, Israel) was prepared into a protein mother solution at a concentration of 10 μM using PBS-Buffer, and 35 μL of the protein stock solution was taken to the Buffer exchange A column, and centrifuged to obtain the Tris-removed protein. 34 μL Labelling Buffer was added to the Tris-removed protein according to the instructions of the Protein Fluorescent Labelling Kit (model L001). After mixing well, 3 μL of NT-647-NHS fluorescent dye was added and thus obtained mixture was incubated for 20 minutes. The protein-dye mixture was transferred to the purification B column, 300 μL of PBS-Buffer was added, and the target protein, i.e. fluorescent labelled protein TRPC6, was collected by centrifugation (with a final concentration of about 2 μM). 180 μL of target protein was mixed with 1620 μL of PBS-Buffer, and then 9 μl of Tween-20 were added thereto. Thus the resulting mixture was mixed and then centrifuged to obtain the target protein solution.
Preparation of compound solutions: the compounds were prepared separately with DMSO to storage solutions with a concentration of 10 μM. 10 μL of each storage solution was placed in a […] EP tube, 90 μL of PBS was added thereto and the resulting mixture was thoroughly mixed to prepare 100 μL of working solution at a concentration of 1 μM for later use. Ligand gradient dilutions were made for a total of 16 concentrations, and 10 μL of 10% DMSO-Buffer was added to each of the 15 gradients except gradient 1, followed by the addition of 10 μL of ligand working solution to gradients 1 and 2, respectively. The liquid in tube 2 was mixed and then 10 μL therein was taken into tube 3, and dilution was carried out in this manner until tube 16. […]

TRPC1 protein = TRPC1 protein (Homo sapiens, UniProt P48995); test: MST binding to TRPC1 protein; conditions: for Kd: MST; for affinity strength to TRPC6 protein higher than to TRPC1 protein: MST Kd ratio
TRPC1 protein, sequence (P48995 whole entry, species assumed): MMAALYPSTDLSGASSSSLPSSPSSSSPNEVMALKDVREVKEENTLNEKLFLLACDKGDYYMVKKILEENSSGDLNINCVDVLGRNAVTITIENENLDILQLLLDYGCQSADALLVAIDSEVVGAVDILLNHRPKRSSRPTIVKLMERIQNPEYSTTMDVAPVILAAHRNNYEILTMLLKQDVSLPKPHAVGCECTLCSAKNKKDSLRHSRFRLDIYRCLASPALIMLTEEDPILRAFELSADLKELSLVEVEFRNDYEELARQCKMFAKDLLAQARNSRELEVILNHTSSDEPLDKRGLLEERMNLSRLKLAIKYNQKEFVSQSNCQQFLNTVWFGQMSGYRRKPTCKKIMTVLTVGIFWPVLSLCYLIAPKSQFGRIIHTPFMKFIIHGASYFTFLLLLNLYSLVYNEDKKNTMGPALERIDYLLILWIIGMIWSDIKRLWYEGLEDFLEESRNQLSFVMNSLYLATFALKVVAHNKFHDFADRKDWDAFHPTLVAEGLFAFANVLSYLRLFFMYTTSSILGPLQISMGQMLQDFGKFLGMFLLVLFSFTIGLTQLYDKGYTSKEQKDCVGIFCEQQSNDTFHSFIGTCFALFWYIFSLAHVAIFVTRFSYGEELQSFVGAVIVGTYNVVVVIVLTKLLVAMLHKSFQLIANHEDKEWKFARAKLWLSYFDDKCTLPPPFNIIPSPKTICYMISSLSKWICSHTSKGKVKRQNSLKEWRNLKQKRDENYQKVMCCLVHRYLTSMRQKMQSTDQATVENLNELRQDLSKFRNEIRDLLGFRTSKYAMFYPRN
Procedure: as §1
Preparation of compound solutions: the compounds were prepared separately with DMSO to storage solutions with a concentration of […]. 10 μL of each storage solution was placed in a […] EP tube, 90 μL of PBS was added thereto and the resulting mixture was thoroughly mixed to prepare 100 μL of working solution at a concentration of 1 μM for later use. Ligand gradient dilutions were made for a total of 16 concentrations, and 10 μL of 10% DMSO-Buffer was added to each of the 15 gradients except gradient 1, followed by the addition of 10 μL of ligand working solution to gradients 1 and 2, respectively. The liquid in tube 2 was mixed and then 10 μL therein was taken into tube 3, and dilution was carried out in this manner until tube 16. Tube 16 was mixed and 10 μL therein was taken and discarded, and the remainder was kept for later use.
Detection and analysis: 10 μL of protein solution was added to the 16 compound gradient dilutions respectively and mixed, and the resultant mixtures were transferred to capillary tubes sequentially to start detection on machine. After loading the data, the MST analysis model and Kd Model were selected to obtain the fitting curve and dissociation constant (Kd).
The binding ability of the compounds of the present invention (as exemplified by the compounds 1-1 and 2-1 obtained in Examples 1 and 3) for other TRPC proteins (e.g., TRPC1, TRPC3, TRPC4, TRPC5, and TRPC7) was determined using the microscale thermophoresis (MST) method. The method was as follows:
The affinity of the compounds of the present invention with TRPC1, TRPC3, TRPC4, TRPC5 and TRPC7 proteins, respectively, was determined by the same method as in Example 5.

[1] = Stability at high temperature and high humidity (residual content); assay type: physicochemical
Procedure: The stability of compounds 1-1, 2-1 and the indole analogue 3-[(1-methyl-1H-indole-2-carbonyl) amino]propionic acid disclosed in CN2019107285315 was tested by experiments at high temperature and high humidity. The compounds were placed in 24-well plates, spread as a thin layer with a thickness of no more than 5 mm and placed in an oven at 60° C. for 10 days. Observation of appearance, TLC identification and determination of absorbance were carried out on the 5th day and the 10th day, respectively, in order to compare with the samples on the 0th day. An amount of compounds were taken into tightly closed brown colored penicillin bottles (the compounds were spread as a thin layer with a thickness of no more than 5 mm) and then placed into a tightly closed container with saturated NaCl solution and left at room temperature away from light for 10 days. Observation of appearance, TLC identification and determination of absorbance were carried out on the 5th day and the 10th day, respectively, in order to compare with the samples on the 0th day.

[2] = high humidity environment (saturated NaCl, room temperature, away from light), after 5 days
[3] = high humidity environment (saturated NaCl, room temperature, away from light), after 10 days
[4] = high temperature environment (oven at 60° C.), after 5 days
[5] = high temperature environment (oven at 60° C.), after 10 days

Row | Structure (SMILES) | Kd (TRPC6 channel) [µM] | Kd (TRPC1 protein) [µM] | affinity strength to TRPC6 protein higher than to TRPC1 protein (TRPC1 protein) [fold] | residual content [1, 2] [%] | residual content [1, 3] [%] | residual content [1, 4] [%] | residual content [1, 5] [%]
1 | Cn1c(C(=O)NCCC(=O)O)cc2ccccc21 [3-[(1-methyl-1H-indole-2-carbonyl)amino]propionic acid, reference compound] | 29.78 ± 0.26 | 1.94 | 65 | 29.5±0.1 | 8.8±0.1 | 23.1±0.1 | 4.2±0.1
2 | CC(=O)OCCCNC(=O)c1c(C=O)c2ccccc2n1C [compound 1-1, propyl 3-[(3-formyl-1-methyl-1H-indole-2-carbonyl)amino]acetate] | 12 ± 3.61 | 2.94 | 245 | 93.5±0.4 | 90.7±0.3 | 95.4±08 | 94.2±0.6
3 | Cn1c(C(=O)NCCCOC(=O)c2ccccc2)c(C=O)c2ccccc21 [compound 2-1] | 19 ± 3.15 | 2.4 | 155 | 94.2±0.3 | 90.1±0.8 | 93.6±0.6 | 91.7±0.5
